Results on eight molecules are retold here after paper PMC8665362, “Identification of small-molecule allosteric modulators that act as enhancers/disrupters of rhodopsin oligomerization” (The Journal of Biological Chemistry, 2021).

Data set [1] concerns the target T1, rhodopsin (isorhodopsin) dimerization (Homo sapiens, UniProt P08100). The data set can be described thus: rhodopsin β-gal fragment complementation assay in U2OS opsin-EA/opsin-PK cells. To be noted: for EC50: U2OS opsin-EA/PK cells regenerated with 9-cis-retinal, triplicates, read from Fig. 3A,D. Type of data set: cell-based. On the set-up: expressed in transfected cells. The source says: (§1) To identify small molecules that target rhodopsin dimerization, a cell-based high-throughput screening (HTS) assay was used to screen a diverse library of 50,000 compounds from Life Chemicals. The human osteosarcoma (U2OS) stable cell line was used, which expresses opsin fused with complimentary subunits of β-galactosidase (β-gal), namely, the enzyme acceptor large β-gal subunit (EA) and the enzyme donor, small subunit of β-gal (PK). Upon rhodopsin self-association in vitro, a competent β-gal was formed and chemiluminescent signal was generated in the presence of β-gal substrate (Fig. 1A). For further validation, the β-gal activity assay was used to counter-screen and rule out false positives, affecting the activity of β-gal without affecting rhodopsin (Fig. 1B) ([34]). In an orthogonal assay, rhodopsin dimerization was assessed using a bioluminescence resonance energy transfer (BRET) assay with human embryonic kidney 293 cells expressing opsin fused with Renilla luciferase and opsin fused with Venus (Fig. 1C) ([35], [36]). To form functional visual pigment, opsin-fused proteins were regenerated with 9-cis-retinal to form so-called isorhodopsin ([37]). We chose 9-cis-retinal over photoreceptor-endogenous 11-cis-retinal because of its availability and the prohibitive cost for HTS assays with the native chromophore. Rhodopsin and isorhodopsin have similar biochemical and spectral properties (see ([38])).
All 50,000 compounds were screened, using the β-gal complementation assay at a final concentration of 60 μM with a Z′ factor of 0.75 ± 0.01 and a signal-to-background (S/B) ratio of 123 ± 14.4 (Fig. 2A) ([39]). The activity scores were calculated according to the following equation: (RLU(compound)−RLU(positivecontrol))/(RLU(negativecontrol)−RLU(positivecontrol))×100.
The positive control comprised U2OS cells transfected with both opsin-EA and opsin-PK, mimicking dimer formation (with a 0% score value), and the negative control comprised U2OS cells transfected with opsin-EA only, mimicking disrupted dimer formation (with a 100% score value).
In this study, cultured U2OS opsin-EA and opsin-PK cells were diluted to 2 × 10^5 cells/ml in the culture medium containing 10% fetal bovine serum (Thermo Fisher Scientific) and 1% penicillin-streptomycin 10,000 U/ml (Thermo Fisher Scientific). Cell diluent of 20 μl/well was dispensed into a white ViewPlate-384 (PerkinElmer) using the EL406 plate dispenser (BioTek). As a control, we used U2OS opsin-EA–only expressing cells as a positive control for dimerization disruption generating a minimal luminescence signal, as previously described ([41]). The plates were cultured overnight at 37 °C in 5% CO2, and the next day, under a dim red light, cells were treated with 5 μl/well of 9-cis-retinal (Sigma-Aldrich) at 7.5 μM final concentration. Plates were covered with aluminum foil and cultured overnight at 37 °C in 5% CO2. Next, cells were treated with each of the 50,000 library compounds (Life Chemicals Inc) at a final concentration of 57.6 μM, using a JANUS automated workstation (PerkinElmer), followed by incubation overnight at 37 °C, covered with aluminum foil. The next day, cells were treated with Galacton-Star chemiluminescent substrate (23 μl/well; Thermo Fisher Scientific). The plates were covered with foil and incubated at 20 °C for 2 h, followed by luminescence reading with the EnSpire multimode plate reader (PerkinElmer). Measurements were evaluated with the lowest value being defined as −50% (dimer enhancers) and the highest value as 100% (dimer disrupters) in the compound dataset. All experiments were done under red-light conditions. Identified compounds were retested in triplicates ranging from 180 μM down to 2.4 nM concentrations.

Data set [2] addresses T1, rhodopsin (isorhodopsin) dimerization. Description: rhodopsin dimerization BRET assay in HEK293 opsin-Rluc/opsin-Venus cells. Type of data set: cell-based. Also on record: expressed in transfected cells; host or cells: HEK293 (human embryonic kidney 293) opsin-Rluc / opsin-Venus cell lines. To be noted: for EC50: HEK293 opsin-Rluc/opsin-Venus cells regenerated with 9-cis-retinal, triplicates, read from Fig. 3B,E.
Excerpt: as §1
Identified hits from the β-gal complementation assay were subjected to the previously developed BRET assay, using human embryonic kidney 293 opsin–Renilla luciferase and opsin-Venus cell lines ([37]). Cultured cells were diluted to 2 × 10^5 cells/ml in the medium containing 10% fetal bovine serum (Thermo Fisher Scientific) and 1% penicillin-streptomycin (10,000 U/ml; Thermo Fisher Scientific), and 20 μl/well of the cell diluent was dispensed into a white ViewPlate-384 (PerkinElmer). Cells were cultured overnight at 37 °C in 5% CO2, and under a dim red light, cells were treated with 9-cis-retinal at 7.5 μM final concentration. The next day, cells were treated with the identified hit compounds from the β-gal complementation assay at 180 μM down to 2.4 nM concentrations, and 1 μM final concentration of TM5 peptide ([…]-NH2; EZBiolab) serving as the control. On the following day, the culture medium was aspirated and replaced with 90 μl/well of PBS containing pivaloyloxymethyl acetoxycoelenterazine h (Dalton Research Molecules) at 600 μM concentration followed by incubation at 20 °C for 40 min ([35]). Dual luminescence readings at 480 and 530 nm were performed using a SpectraMax L plate reader with the BRET1 filter set (Molecular Devices).
A general note: Bioluminescence resonance energy transfer reports proximity on the nanometre scale.

Another data set concerns the target T2, bovine rhodopsin (Bos taurus, UniProt P02699).
T2 construct: The washed ROS with isotonic and hypotonic buffers was used as described above; from tissue; host or cells: bovine rod outer segments (ROS)
The data set can be described thus: rhodopsin Meta II decay assay (Trp265 intrinsic fluorescence). To be noted: 100 μM compound; for Meta II decay rate (slope of intrinsic fluorescence over 150 s) relative to DMSO control: bleached rhodopsin, p < 0.0001. On the procedure:
However, oligomerization of isorhodopsin could affect the chromophore release from opsin. The chromophore release can be measured sensitively by the light-induced increase in intrinsic fluorescence of the Trp^265 residue that occurs upon release of the chromophore after illumination ([43]).
The washed ROS with isotonic and hypotonic buffers was used as described above. The solubilized rhodopsin at 1.05 mg/ml in 20 mM 1,3-bis(tris(hydroxymethyl)methylamino) propane, pH 6.9, 100 mM NaCl, and 1 mM LMNG buffer was incubated for 5 min at 20 °C with 0.7 μl of 100 mM stock solutions of the nine identified hit compounds (100 μM final concentration) in DMSO and centrifuged at 1000g for an additional 5 min. Next, photobleaching was carried out with a 150-W fiber light delivered through a 480 to 520 nm band pass filter (Chroma Technology) for 10 s. Samples were subjected to fluorescence measurements acquired through 150 s in triplicate. The results were analyzed with an L55 luminescence spectrophotometer (PerkinElmer) operating at excitation and emission wavelengths of 300 nm and 335 nm, respectively.

Data set [3] relates to individual rod photoreceptors. Description: single-cell suction electrode recording from rod outer segments. To be noted: long incubation time during sample preparation for single-cell recording. Type of data set: cell-based, mouse (C57BL/6J). On the procedure:
Because it is possible that reduction of Rmax by compound #1 is due to some effect(s) on the rod photoreceptor inner segment currents that are not directly related to phototransduction ([51], [52]), we conducted also single-cell suction electrode recordings from the ROS from samples that were incubated either in the control medium or in the medium containing enhancer compound #1. The results from single cell recordings were similar to those obtained using ex vivo ERG: Rmax and fractional sensitivity were decreased from 12 (±0.4) to 9 (±0.3) pA and from 3.0 (±0.5) to 1.8 (±0.1)% per photon μm^−2, respectively, by rhodopsin dimerization–enhancing hit #1 (Fig. 6, A–C). Like the ex vivo ERG recordings, light response kinetics was not affected by compound #1 in the single-cell recordings (Fig. 6D).
Suction electrode recordings from individual rod photoreceptors of dark-adapted C57BL/6J mice were conducted as described previously ([65]). Before recordings, isolated retinas were incubated in the control medium (Ames’ medium + 0.1% DMSO) or in the hit compound–containing medium (Ames’ medium +250 μM F2502-0030 (#1)) as described above for ex vivo ERG experiments. After incubation, one half of the retina was chopped with a razor blade and transferred into a chamber where it was perfused at 1 ml/min with Ames’ medium saturated with 95% O2/5% CO2 at 35 °C. Recordings were made from a single ROS, using borosilicate glass electrodes with ∼1.5-μm opening (resistance ∼2 MΩ at 35 °C). The pipette solution was Hepes buffered Ames’ medium composed of 0.88 g Ames’ powder (A1420, Sigma-Aldrich), 0.357 g Hepes (Sigma-Aldrich), and 58.44 mg NaCl in […] distilled and vacuum-filtered water. The pH was adjusted to 7.4 with NaOH. Light responses were recorded to flashes of light ranging from 8 to 700 photons μm^−2 at 500 nm. For analysis, data were low-pass filtered using an 8-pole Bessel filter with cut-off frequency at 30 Hz.

The test system of data set [4] is rod photoreceptors of isolated mouse retinas. The data set can be described thus: ex vivo ERG of isolated mouse retinas (rod light responses). Type of data set: cell-based, mouse (C57BL/6J). To be noted: 250 μM compound. From the text:
We determined the impact of compound #7 (representative disrupter of rhodopsin dimerization) and compound #1 (representative enhancer) on the sensitivity and kinetics of rod light responses, using ex vivo electroretinogram (ERG) analysis of isolated mouse retinas (Experimental procedures). This technique allows robust recordings from intact retinas and is well suited for quantitative investigation of mouse phototransduction ([48], [49], [50], [51], [52], [53]).
Ex vivo ERG recordings were conducted with isolated retinas of C57Bl/6J mice, as described ([41], [62], [63]). Mice were dark-adapted overnight and euthanized by CO2 asphyxiation, and whole retinas were dissected under dim red light. Before recordings, retinas were incubated for 5 h in Ames’ medium (Sigma-Aldrich) inside a light-tight box that was supplied with humidified 95% O2/5% CO2. For control retinas, 0.1% DMSO was added to the incubation medium, and for others, the incubation medium contained either 250 μM F2502-0030 (compound #1) or F5897-0190 (compound #7). These compounds were first dissolved in DMSO at 250 mM concentration, and 0.1% of this stock solution was added to the incubation medium (Ames’ medium). Stock solution was stored at −20 °C and used within a week. After incubation, retinas were placed on the ex vivo ERG specimen holder and perfused with Ames’ medium (saturated with 95% O2/5% CO2) at 1.5 ml/min at 35 °C. Ames’ medium was supplemented with 100 μM BaCl2 and 40 μM DL-AP4 (Tocris Bioscience) to isolate the photoreceptor component of the ERG signal. Responses were recorded to 5 ms flashes of light (630 nm) ranging from 276 to 308,534 photons μm^−2, corresponding to 1 to 1100 photons μm^−2 at 500 nm ([64]). Sensitivity of rod photoreceptors was determined in three ways: (1) sF = peak amplitude of dim flash response divided by flash energy (1 photon μm^−2); (2) SF = sF/Rmax, where Rmax is the maximal response amplitude measured at the plateau from a saturated rod response; (3) I1/2: flash energy required to elicit 50% of the Rmax determined by fitting a Naka-Rushton function to flash energy-amplitude data.

Marks after values point to notes of the source that are not given here.

T2 sequence (P02699 whole entry): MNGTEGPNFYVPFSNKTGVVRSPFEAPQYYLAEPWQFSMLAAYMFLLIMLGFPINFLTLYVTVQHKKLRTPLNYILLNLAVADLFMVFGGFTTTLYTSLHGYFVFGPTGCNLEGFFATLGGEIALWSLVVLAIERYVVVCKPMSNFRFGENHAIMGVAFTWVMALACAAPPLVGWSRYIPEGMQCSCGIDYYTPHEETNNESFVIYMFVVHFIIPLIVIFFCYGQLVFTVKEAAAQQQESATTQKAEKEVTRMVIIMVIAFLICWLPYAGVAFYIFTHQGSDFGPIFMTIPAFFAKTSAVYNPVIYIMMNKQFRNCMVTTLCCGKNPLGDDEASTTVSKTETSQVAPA
T1 sequence (P08100 whole entry, the tested form may be a part): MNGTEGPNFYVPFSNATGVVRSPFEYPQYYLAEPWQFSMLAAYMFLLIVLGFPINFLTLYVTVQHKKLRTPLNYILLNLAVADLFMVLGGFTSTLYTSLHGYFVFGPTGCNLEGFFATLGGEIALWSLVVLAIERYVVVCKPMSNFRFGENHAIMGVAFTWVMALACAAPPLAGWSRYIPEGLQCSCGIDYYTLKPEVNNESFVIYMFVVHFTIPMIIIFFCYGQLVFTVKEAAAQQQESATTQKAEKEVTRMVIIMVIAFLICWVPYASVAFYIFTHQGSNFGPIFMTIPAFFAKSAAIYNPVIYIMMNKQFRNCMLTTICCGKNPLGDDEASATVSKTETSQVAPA

For `O=C(NCCc1ccsc1)c1cc(-c2ccco2)on1` [#2], the EC50 (usually the concentration at which the effect is half-maximal) in data set [1] stood at 1.2 µM; in data set [2] it was 4 µM.

In the case of `O=C(Nc1ccc(CC(=O)N2CCC(O)CC2)cc1)c1cc(-c2ccco2)on1` [#3], the EC50 was found to be 23.9 µM in data set [1] and 7.87 µM in data set [2]. Besides, the “light-induced increase in Trp265 intrinsic fluorescence vs DMSO-treated isorhodopsin” value at bovine rhodopsin is reported as “significantly quenched”. On bovine rhodopsin, the “Meta II decay rate (slope of intrinsic fluorescence over 150 s) relative to DMSO control” value is listed as “statistically significant signal reduction”.

Regarding `O=C(CCCCn1c(=O)c2ccccc2n(Cc2ccccc2)c1=O)NCc1cccs1` [#4], the “effect on dimerization in the β-gal complementation assay” value in data set [1] was “disrupted dimerization”. For the same molecule, in data set [2], the “effect on dimerization in the BRET assay” value is given as “enhanced dimerization”.

`COc1ccc(S(=O)(=O)N(C(C)=O)c2cc3sc(=O)oc3c3ccccc23)cc1` [#5]: the EC50 in data set [1] was determined as 31.3 µM; in data set [2], 5.53 µM.

On to `CCOc1ccccc1-n1nnc(-c2nn3c(Cc4ccccc4)nnc3s2)c1C` [#6], for which the figures for the EC50 in data set [1] and in data set [2] were 30 µM and 13.6 µM, respectively. Also, the “Meta II decay rate (slope of intrinsic fluorescence over 150 s) relative to DMSO control” value at bovine rhodopsin is on record as “statistically significant signal reduction”.

For `Cc1onc(-c2ccccc2Cl)c1C(=O)Nc1cccc2ccc(-n3ccnc3)nc12` [#7], the “damage to photoreceptor cells” value in data set [3] is recorded as “caused damage to the photoreceptor cells”. In addition, the “Meta II decay rate (slope of intrinsic fluorescence over 150 s) relative to DMSO control” value on bovine rhodopsin is recorded as “statistically significant signal reduction”. Further, in data set [4], the “effect on kinetics of rod light responses” value is given as “marked deceleration of light responses”. The Rmax in data set [4] (5 h incubation, N = 4 retinas) is 550 ± 40 μV. Further, in data set [4] (Fig. 5F), the “half-saturating I1/2 from best-fitting Michaelis–Menten equation to mean normalized amplitudes” value stood at 34 photons μm^−2. Moreover, in data set [4] (N = 4), the “SF (fractional sensitivity, sF/rmax)” value is reported as 4.0 ± 0.3 ^a %/photons∙μm^−2 and the “sF (absolute sensitivity)” value was 18 ± 6 ^a μV/photons∙μm^−2. Further, the I1/2 in data set [4] (from individual retinas, N = 4) is listed as 35 ± 3 ^a photons∙μm^−2. Also, the tp in data set [4] (time-to-peak of dim flash (1 photon μm^−2), N = 4) is 910 ± 100 ^a ms.

Turning to `NC(=O)c1oc2ccccc2c1NC(=O)c1ccc(Oc2ccccc2)cc1` [#8], the half-maximal effective concentration (EC50) in data set [1] came to 16.5 µM; in data set [2] it was 20.5 µM. In addition, on bovine rhodopsin, the “Meta II decay rate (slope of intrinsic fluorescence over 150 s) relative to DMSO control” value was “statistically significant signal reduction”.

Consider `Cc1c(C(=O)N(Cc2cccnc2)c2nc3c(F)cccc3s2)cnn1-c1ccccc1` [#9], for which the EC50 in data set [1] turned out to be 10.5 µM; in data set [2], 17.7 µM. Also, at bovine rhodopsin, the “Meta II decay rate (slope of intrinsic fluorescence over 150 s) relative to DMSO control” value is listed as “statistically significant signal reduction”.
